Patent US12503438B2, “Compounds for the treatment of kinase-dependent disorders” (Exelixis, Inc., priority 2019, dated 2025)

Columns and labels:
AXL = target: T1, AXL (Homo sapiens, UniProt P30530); assay: AXL autophosphorylation ELISA in A-172 cells; type: cell-based; details: cellular activity, Gas6-stimulated, phospho-AXL ELISA
T1 construct: endogenous in cells; host or cells: A-172 glioblastoma cells (ATCC #CRL-1620)
T1 sequence (P30530 26-894): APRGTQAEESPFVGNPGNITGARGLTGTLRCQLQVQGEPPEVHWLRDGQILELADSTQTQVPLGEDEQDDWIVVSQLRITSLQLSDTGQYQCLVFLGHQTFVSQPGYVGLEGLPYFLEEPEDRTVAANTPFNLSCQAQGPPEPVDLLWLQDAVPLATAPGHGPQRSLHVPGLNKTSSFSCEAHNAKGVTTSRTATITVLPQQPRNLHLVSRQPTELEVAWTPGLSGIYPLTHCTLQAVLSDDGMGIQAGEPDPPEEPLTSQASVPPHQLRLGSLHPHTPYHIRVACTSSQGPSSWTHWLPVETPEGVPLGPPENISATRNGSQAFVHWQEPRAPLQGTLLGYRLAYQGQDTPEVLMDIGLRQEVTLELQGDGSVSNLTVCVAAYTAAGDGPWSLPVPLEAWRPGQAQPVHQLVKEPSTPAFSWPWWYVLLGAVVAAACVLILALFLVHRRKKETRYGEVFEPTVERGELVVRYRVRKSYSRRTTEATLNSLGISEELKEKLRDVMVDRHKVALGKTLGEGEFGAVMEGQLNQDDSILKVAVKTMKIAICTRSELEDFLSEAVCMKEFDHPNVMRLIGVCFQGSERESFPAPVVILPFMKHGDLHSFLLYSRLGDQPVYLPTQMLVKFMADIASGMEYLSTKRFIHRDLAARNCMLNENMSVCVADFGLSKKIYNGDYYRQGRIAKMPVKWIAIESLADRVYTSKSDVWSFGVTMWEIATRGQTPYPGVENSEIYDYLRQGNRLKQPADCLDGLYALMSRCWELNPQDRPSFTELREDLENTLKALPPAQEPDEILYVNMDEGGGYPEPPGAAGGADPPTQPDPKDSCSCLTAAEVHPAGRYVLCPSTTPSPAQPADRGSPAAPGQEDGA
Protocol: A-172 glioblastoma cells (ATCC #CRL-1620) were seeded at 2.5×10^5 cells/well onto 24-well plates (Greiner #662165), in DMEM (Thermo Fisher #11995-040) containing 10% FBS (Thermo Fisher #26140-079), 1% MEM NEAA (Thermo Fisher #11140-050), 1% GlutaMax (Thermo Fisher #35050-061) and 1% Penicillin Streptomycin (Thermo Fisher #15140-122). A-172 cells were incubated at 37° C., 5% CO2 for 24 h and then starved for 24 h in serum-free medium. Test compounds were serially diluted to produce an 8-point dose curve in fresh serum-free medium to a final concentration of 0.3% DMSO (vehicle) and added to the cells and incubated for 1 h. Cells were then stimulated with 1 μg/mL recombinant human Gas6 (R&D Systems #885-GSB-500) for 15 min, washed with cold PBS and immediately lysed with 150 μL of cold 1× lysis buffer [20 mM Tris, 137 mM sodium chloride, 2 mM EDTA, 10% glycerol, 1% NP-40 alternative, 1 mM activated sodium orthovanadate, 1 mM PefaBloc SC (Sigma-Aldrich #11429868001), protease/phosphatase inhibitor tablet (Thermo Fisher #A32959)]. Lysates were collected and 100 μL/well added into the human phospho-AXL DuoSet IC ELISA (R&D Systems #DYC2228-2). Assay was performed according to manufacturer's instructions and sample phospho-AXL concentrations were extrapolated using human phospho-AXL control (R&D Systems #841645) as a standard. Positive control wells (100% activity) contained Gas6-stimulated, DMSO-treated cell lysates. Negative control wells (0% activity) contained Gas6-stimulated, reference inhibitor-treated cell lysates. IC50 values were calculated by nonlinear regression analysis using a 4-parameter logistic curve fit in ActivityBase XE (IDBS).

KDR = KDR (Homo sapiens, UniProt P35968); assay: KDR autophosphorylation ELISA in HUVEC cells; type: cell-based; design: endogenous in cells; host or cells: HUVEC (Lonza #C2519A); details: cellular activity, VEGF165-stimulated, phospho-KDR ELISA
Chain of KDR (P35968 20-1356): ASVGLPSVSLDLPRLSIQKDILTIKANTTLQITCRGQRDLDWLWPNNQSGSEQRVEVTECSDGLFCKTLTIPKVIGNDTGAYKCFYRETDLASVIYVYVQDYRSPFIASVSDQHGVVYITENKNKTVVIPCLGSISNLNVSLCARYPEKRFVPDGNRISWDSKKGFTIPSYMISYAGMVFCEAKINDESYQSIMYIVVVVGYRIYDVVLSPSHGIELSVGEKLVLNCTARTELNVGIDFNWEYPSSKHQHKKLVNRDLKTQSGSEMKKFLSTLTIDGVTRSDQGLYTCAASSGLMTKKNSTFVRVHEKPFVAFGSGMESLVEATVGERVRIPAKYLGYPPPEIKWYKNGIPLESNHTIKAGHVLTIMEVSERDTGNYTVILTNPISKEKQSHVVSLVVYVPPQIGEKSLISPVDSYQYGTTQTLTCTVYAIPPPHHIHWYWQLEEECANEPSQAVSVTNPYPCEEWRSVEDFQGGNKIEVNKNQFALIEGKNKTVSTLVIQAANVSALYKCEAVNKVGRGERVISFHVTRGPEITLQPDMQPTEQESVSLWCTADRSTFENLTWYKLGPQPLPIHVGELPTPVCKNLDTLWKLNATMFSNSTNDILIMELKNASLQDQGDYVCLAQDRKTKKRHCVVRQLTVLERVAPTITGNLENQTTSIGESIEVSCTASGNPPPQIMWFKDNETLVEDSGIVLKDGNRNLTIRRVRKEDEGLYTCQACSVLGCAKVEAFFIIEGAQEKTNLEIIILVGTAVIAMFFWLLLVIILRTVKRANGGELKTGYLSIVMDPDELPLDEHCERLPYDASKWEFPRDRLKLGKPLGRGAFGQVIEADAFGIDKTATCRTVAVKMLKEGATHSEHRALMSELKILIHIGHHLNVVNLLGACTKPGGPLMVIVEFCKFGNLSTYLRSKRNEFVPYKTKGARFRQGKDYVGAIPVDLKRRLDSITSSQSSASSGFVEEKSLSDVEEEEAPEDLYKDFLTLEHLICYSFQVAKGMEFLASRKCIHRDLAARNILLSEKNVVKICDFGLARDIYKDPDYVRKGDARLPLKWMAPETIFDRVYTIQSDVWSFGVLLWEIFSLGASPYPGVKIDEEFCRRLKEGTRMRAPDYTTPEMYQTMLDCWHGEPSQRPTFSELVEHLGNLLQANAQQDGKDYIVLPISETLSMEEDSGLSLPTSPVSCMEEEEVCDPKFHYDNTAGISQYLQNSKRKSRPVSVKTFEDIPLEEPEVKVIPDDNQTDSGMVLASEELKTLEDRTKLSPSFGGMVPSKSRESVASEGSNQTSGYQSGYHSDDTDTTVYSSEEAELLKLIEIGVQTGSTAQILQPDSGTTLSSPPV
Protocol: Human umbilical vein endothelial cells or HUVEC (Lonza #C2519A) were seeded at 2×10^4 cells/well onto 96-well plates (Corning #3904), in EGM-2 growth medium (Lonza #CC-3162) containing 1% Penicillin Streptomycin (Thermo Fisher #15140-122). HUVEC cells were incubated at 37° C., 5% CO2 for 24 h and then starved for 24 h in serum-free EBM-2 basal medium (Lonza #CC-3156) containing 1% Penicillin Streptomycin. Test compounds were serially diluted to produce an 8-point dose curve in fresh serum-free medium to a final concentration of 0.3% DMSO (vehicle) and added to the cells and incubated for 1 h. Cells were then stimulated with 100 ng/mL recombinant human VEGF165 (R&D Systems #293-VE-500) for 5 min, washed with cold PBS, and immediately lysed with 130 μL of cold 1× lysis buffer [20 mM Tris, 137 mM sodium chloride, 2 mM EDTA, 10% glycerol, 1% NP-40 alternative, 1 mM activated sodium orthovanadate, 1 mM PefaBloc SC (Sigma-Aldrich #11429868001), protease/phosphatase inhibitor tablet (Thermo Fisher #A32959)]. Lysates were collected and 100 μL/well added into the human phospho-KDR DuoSet IC ELISA (R&D Systems #DYC1766-2). Assay was performed according to manufacturer's instructions and sample phospho-KDR concentrations were extrapolated using human phospho-KDR control (R&D Systems #841421) as a standard. Positive control wells (100% activity) contained VEGF165-stimulated, DMSO-treated cell lysates. Negative control wells (0% activity) contained non-stimulated cell lysates. IC50 values were calculated by nonlinear regression analysis using a 4-parameter logistic curve fit in ActivityBase XE (IDBS).

O=C(Nc1ccc(F)cc1)C1(C(=O)Nc2ccc(Oc3ccnc4cc(-c5cccnc5)ccc34)cc2)CC1 [Compound 25, 1-N′-(4-Fluorophenyl)-1-N-[4-(7-pyridin-3-ylquinolin-4-yl)oxyphenyl]cyclopropane-1,1-dicarboxamide]
IC50 (AXL): 10 to 100 nM
IC50 (KDR): ≤ 10 nM

O=C(Nc1ccc(F)cc1)C1(C(=O)Nc2ccc(Oc3ccnc4cc(-c5ccncc5)ccc34)cc2)CC1 [Compound 26, 1-N′-(4-Fluorophenyl)-1-N-[4-(7-pyridin-4-ylquinolin-4-yl)oxyphenyl]cyclopropane-1,1-dicarboxamide]
IC50 (AXL): ≤ 10 nM
IC50 (KDR): ≤ 10 nM

O=C(Nc1ccc(F)cc1)C1(C(=O)Nc2ccc(Oc3ccnc4cc(-c5cncnc5)ccc34)cc2)CC1 [Compound 27, 1-N′-(4-Fluorophenyl)-1-N-[4-(7-pyrimidin-5-ylquinolin-4-yl)oxyphenyl]cyclopropane-1,1-dicarboxamide]
IC50 (AXL): 10 to 100 nM
IC50 (KDR): 10 to 100 nM

O=C(Nc1ccc(F)cc1)C1(C(=O)Nc2ccc(Oc3ccnc4cc(-c5ccnnc5)ccc34)cc2)CC1 [Compound 28, 1-N′-(4-Fluorophenyl)-1-N-[4-(7-pyridazin-4-ylquinolin-4-yl)oxyphenyl]cyclopropane-1,1-dicarboxamide]
IC50 (AXL): ≤ 10 nM
IC50 (KDR): 10 to 100 nM

O=C(Nc1ccc(F)cc1)C1(C(=O)Nc2ccc(Oc3ccnc4cc(-c5cnn6c5CCC6)ccc34)cc2)CC1 [Compound 29, 1-N-[4-[7-(5,6-Dihydro-4H-pyrrolo[1,2-b]pyrazol-3-yl)quinolin-4-yl]oxyphenyl]-1-N′-(4-fluorophenyl)cyclopropane-1,1-dicarboxamide]
IC50 (AXL): 10 to 100 nM
IC50 (KDR): 10 to 100 nM

Cc1cc(-c2ccc3c(Oc4ccc(NC(=O)C5(C(=O)Nc6ccc(F)cc6)CC5)cc4)ccnc3c2)ccn1 [Compound 30, 1-N′-(4-Fluorophenyl)-1-N-[4-[7-(2-methylpyridin-4-yl)quinolin-4-yl]oxyphenyl]cyclopropane-1,1-dicarboxamide]
IC50 (AXL): 10 to 100 nM
IC50 (KDR): 10 to 100 nM

COc1cc(-c2ccc3c(Oc4ccc(NC(=O)C5(C(=O)Nc6ccc(F)cc6)CC5)cc4)ccnc3c2)ccn1 [Compound 31, 1-N′-(4-Fluorophenyl)-1-N-[4-[7-(2-methoxypyridin-4-yl)quinolin-4-yl]oxyphenyl]cyclopropane-1,1-dicarboxamide]
IC50 (AXL): 10 to 100 nM
IC50 (KDR): 10 to 100 nM

O=C(Nc1ccc(F)cc1)C1(C(=O)Nc2ccc(Oc3ccnc4cc(-c5ccnc(F)c5)ccc34)cc2)CC1 [Compound 33, 1-N′-(4-Fluorophenyl)-1-N-[4-[7-(2-fluoropyridin-4-yl)quinolin-4-yl]oxyphenyl]cyclopropane-1,1-dicarboxamide]
IC50 (AXL): 10 to 100 nM
IC50 (KDR): 10 to 100 nM

N#Cc1cc(-c2ccc3c(Oc4ccc(NC(=O)C5(C(=O)Nc6ccc(F)cc6)CC5)cc4)ccnc3c2)ccn1 [Compound 34, 1-N-[4-[7-(2-Cyanopyridin-4-yl)quinolin-4-yl]oxyphenyl]-1-N′-(4-fluorophenyl)cyclopropane-1,1-dicarboxamide]
IC50 (AXL): 10 to 100 nM
IC50 (KDR): 10 to 100 nM

Nc1ccc(-c2ccc3c(Oc4ccc(NC(=O)C5(C(=O)Nc6ccc(F)cc6)CC5)cc4)ccnc3c2)cn1 [Compound 38, 1-N-[4-[7-(6-Aminopyridin-3-yl)quinolin-4-yl]oxyphenyl]-1-N′-(4-fluorophenyl)cyclopropane-1,1-dicarboxamide]
IC50 (AXL): 10 to 100 nM
IC50 (KDR): 10 to 100 nM

O=C(Nc1ccc(F)cc1)C1(C(=O)Nc2ccc(Oc3ccnc4cc(-c5cnc6[nH]ncc6c5)ccc34)cc2)CC1 [Compound 39, 1-N′-(4-Fluorophenyl)-1-N-[4-[7-(1H-pyrazolo[3,4-b]pyridin-5-yl)quinolin-4-yl]oxyphenyl]cyclopropane-1,1-dicarboxamide]
IC50 (AXL): 10 to 100 nM
IC50 (KDR): 10 to 100 nM

N#Cc1cncc(-c2ccc3c(Oc4ccc(NC(=O)C5(C(=O)Nc6ccc(F)cc6)CC5)cc4)ccnc3c2)c1 [Compound 40, 1-N-[4-[7-(5-Cyanopyridin-3-yl)quinolin-4-yl]oxyphenyl]-1-N′-(4-fluorophenyl)cyclopropane-1,1-dicarboxamide]
IC50 (AXL): 10 to 100 nM
IC50 (KDR): 10 to 100 nM

O=C(Nc1ccc(F)cc1)C1(C(=O)Nc2ccc(Oc3ccnc4cc(-c5ccc(F)nc5)ccc34)cc2)CC1 [Compound 41, 1-N′-(4-Fluorophenyl)-1-N-[4-[7-(6-fluoropyridin-3-yl)quinolin-4-yl]oxyphenyl]cyclopropane-1,1-dicarboxamide]
IC50 (AXL): 10 to 100 nM
IC50 (KDR): 10 to 100 nM

N#Cc1ccc(-c2ccc3c(Oc4ccc(NC(=O)C5(C(=O)Nc6ccc(F)cc6)CC5)cc4)ccnc3c2)cn1 [Compound 42, 1-N-[4-[7-(6-Cyanopyridin-3-yl)quinolin-4-yl]oxyphenyl]-1-N′-(4-fluorophenyl)cyclopropane-1,1-dicarboxamide]
IC50 (AXL): 10 to 100 nM
IC50 (KDR): 10 to 100 nM

O=C(Nc1ccc(F)cc1)C1(C(=O)Nc2ccc(Oc3ccnc4cc(-c5cncc(F)c5)ccc34)cc2)CC1 [Compound 45, 1-N′-(4-Fluorophenyl)-1-N-[4-[7-(5-fluoropyridin-3-yl)quinolin-4-yl]oxyphenyl]cyclopropane-1,1-dicarboxamide]
IC50 (AXL): 10 to 100 nM
IC50 (KDR): 100 to 300 nM

Cc1cncc(-c2ccc3c(Oc4ccc(NC(=O)C5(C(=O)Nc6ccc(F)cc6)CC5)cc4)ccnc3c2)c1 [Compound 46, 1-N′-(4-Fluorophenyl)-1-N-[4-[7-(5-methylpyridin-3-yl)quinolin-4-yl]oxyphenyl]cyclopropane-1,1-dicarboxamide]
IC50 (AXL): > 300 nM
IC50 (KDR): 10 to 100 nM

COc1cncc(-c2ccc3c(Oc4ccc(NC(=O)C5(C(=O)Nc6ccc(F)cc6)CC5)cc4)ccnc3c2)c1 [Compound 47, 1-N′-(4-Fluorophenyl)-1-N-[4-[7-(5-methoxypyridin-3-yl)quinolin-4-yl]oxyphenyl]cyclopropane-1,1-dicarboxamide]
IC50 (AXL): 10 to 100 nM
IC50 (KDR): 100 to 300 nM

O=C(Nc1ccc(F)cc1)C1(C(=O)Nc2ccc(Oc3ccnc4cc(-c5ccc(O)nc5)ccc34)cc2)CC1 [Compound 51, 1-N′-(4-Fluorophenyl)-1-N-[4-[7-(6-hydroxypyridin-3-yl)quinolin-4-yl]oxyphenyl]cyclopropane-1,1-dicarboxamide]
IC50 (AXL): ≤ 10 nM
IC50 (KDR): ≤ 10 nM
